These results are taken from patent US7253154B2, “Substituted thiazolopyrimidines as xanthine oxidase inhibitors” (Nippon Chemiphar Co., Ltd., priority 2001, dated 2007).

For assay [1], the target named is T1, Cow milk Xanthine Oxidase (Bos taurus, UniProt P80457).
T1 construct: Cow milk Xanthine Oxidase (Roche); purchased Roche; host or cells: cow milk
Kind of assay: Xanthine oxidase inhibiting action, in vitro test (oxidation of xanthine, absorbance OD 290). The note with it: Cow milk xanthine oxidase (Roche), xanthine substrate, 50 mM phosphate buffer pH 7.5, 37° C., 15 min. The class given is biochemical. As to the method:
Pharmacological Experiment 1 (In Vitro Test)
1. Preparation of Test Sample
250 gL of each of the solutions of the test compound having different concentrations was added to 1 mL of a solution of Xanthine (SIGMA, 300 µM) in the 50 mM phosphor buffer (pH 7.5). The mixture was then pre-incubated at 37° C. for 10 min. Subsequently, to the pre-incubated mixture was added […] of Cow milk Xanthine Oxidase (Roche) diluted with the 50 mM phosphate buffer (pH 7.5) to give a solution of 30 mU concentration. The mixture was then kept at 37° C. for 15 min for performing a reaction. The reaction was terminated by addition of 1N hydrochloric acid. Subsequently, the absorbance ([…]) was measured by means of a spectrophotometer (HITACHI U-2000), to obtain the inhibition ratio.
The inhibition ratio was calculated according to the following formula: Inhibition ratio(%)=[1−(B−C)/(A−C)]×100
B: absorbance measured in the case of using test compound

The target in another assay is T2, xanthine oxidase (Mus musculus, UniProt Q00519).
T2 construct: ICR mouse (Japan Charles River Co., Ltd., 6 W) was employed as test animal; from tissue; host or cells: living ICR mouse (whole animal; plasma uric acid measured)
Kind of assay: In vivo test: uric acid value in plasma of mouse after oral administration. The note with it: ICR mouse, 3 mg/10 mL/kg single oral administration, blood collected after one hour. An excerpt: The xanthine oxidase inhibiting action was further confirmed in vivo tests by measuring the uric acid concentration in a plasma obtained from mouse into which the compound of the invention had been orally administered. See Example 1-B, Table 21.
Pharmacological Experiment 2 (In Vivo Test)
1. Test Animals, and Grouping
ICR mouse (Japan Charles River Co., Ltd., 6 W) was employed as test animal. One group comprised mice, and a vehicle control group was set for each experiment.
2. Preparation and Administration of the Test Compound
The test compound was suspended in aqueous […] methylcellulose solution to for administration.
Dosage is 3 mg/10 mL/kg for each of the control groups and all test groups. The administration was made by single oral administration.
3. Procedure of Experiment
The test compound was orally administered once, and the whole blood was collected from main artery in the presence of heparin after one hour. From the collected whole blood was separated plasma in the conventional manner, and the plasma was subjected to measurement of uric acid value by the enzyme method by means of an automatic analytical apparatus (HITACHI 7060E).
The inhibition ratio was calculated according to the following formula: Inhibition ratio(%)=[…]
A: average uric acid value in plasma of the group into which the test compound was administered.
B: average uric acid value in plasma of the vehicle control group

T2 sequence (Q00519 whole entry): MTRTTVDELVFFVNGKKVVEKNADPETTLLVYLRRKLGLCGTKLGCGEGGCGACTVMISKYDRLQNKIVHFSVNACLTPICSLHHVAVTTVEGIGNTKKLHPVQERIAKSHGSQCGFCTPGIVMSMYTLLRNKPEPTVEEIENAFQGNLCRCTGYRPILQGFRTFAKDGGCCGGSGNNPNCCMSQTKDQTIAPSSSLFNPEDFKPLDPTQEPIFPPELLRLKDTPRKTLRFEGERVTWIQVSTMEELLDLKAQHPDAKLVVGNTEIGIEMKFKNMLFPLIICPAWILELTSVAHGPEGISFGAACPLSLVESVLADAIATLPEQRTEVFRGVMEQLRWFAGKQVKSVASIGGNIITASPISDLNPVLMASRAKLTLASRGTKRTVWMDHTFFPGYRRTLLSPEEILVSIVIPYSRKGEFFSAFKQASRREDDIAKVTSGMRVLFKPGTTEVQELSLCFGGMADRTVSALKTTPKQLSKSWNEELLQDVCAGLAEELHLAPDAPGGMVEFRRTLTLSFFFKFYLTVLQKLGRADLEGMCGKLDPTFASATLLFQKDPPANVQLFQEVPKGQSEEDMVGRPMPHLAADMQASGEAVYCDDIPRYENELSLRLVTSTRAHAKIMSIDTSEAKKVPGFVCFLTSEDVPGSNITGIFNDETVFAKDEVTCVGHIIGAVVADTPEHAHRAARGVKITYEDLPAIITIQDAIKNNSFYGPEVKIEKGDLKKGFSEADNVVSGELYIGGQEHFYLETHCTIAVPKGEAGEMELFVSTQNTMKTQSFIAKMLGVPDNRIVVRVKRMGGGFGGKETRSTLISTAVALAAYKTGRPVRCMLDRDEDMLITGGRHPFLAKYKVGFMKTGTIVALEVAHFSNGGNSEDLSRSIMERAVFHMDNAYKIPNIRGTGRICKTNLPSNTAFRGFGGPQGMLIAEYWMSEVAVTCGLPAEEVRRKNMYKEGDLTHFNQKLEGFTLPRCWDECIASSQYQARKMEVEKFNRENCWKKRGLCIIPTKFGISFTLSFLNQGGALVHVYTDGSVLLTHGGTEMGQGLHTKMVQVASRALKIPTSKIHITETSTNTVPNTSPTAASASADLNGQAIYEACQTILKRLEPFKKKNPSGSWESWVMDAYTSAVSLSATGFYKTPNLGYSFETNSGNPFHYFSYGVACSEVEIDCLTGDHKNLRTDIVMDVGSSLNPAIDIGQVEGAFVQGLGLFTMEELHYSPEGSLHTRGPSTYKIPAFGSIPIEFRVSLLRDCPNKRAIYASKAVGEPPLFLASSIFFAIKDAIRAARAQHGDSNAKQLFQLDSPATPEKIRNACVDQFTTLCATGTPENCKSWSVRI
T1 sequence (P80457 whole entry): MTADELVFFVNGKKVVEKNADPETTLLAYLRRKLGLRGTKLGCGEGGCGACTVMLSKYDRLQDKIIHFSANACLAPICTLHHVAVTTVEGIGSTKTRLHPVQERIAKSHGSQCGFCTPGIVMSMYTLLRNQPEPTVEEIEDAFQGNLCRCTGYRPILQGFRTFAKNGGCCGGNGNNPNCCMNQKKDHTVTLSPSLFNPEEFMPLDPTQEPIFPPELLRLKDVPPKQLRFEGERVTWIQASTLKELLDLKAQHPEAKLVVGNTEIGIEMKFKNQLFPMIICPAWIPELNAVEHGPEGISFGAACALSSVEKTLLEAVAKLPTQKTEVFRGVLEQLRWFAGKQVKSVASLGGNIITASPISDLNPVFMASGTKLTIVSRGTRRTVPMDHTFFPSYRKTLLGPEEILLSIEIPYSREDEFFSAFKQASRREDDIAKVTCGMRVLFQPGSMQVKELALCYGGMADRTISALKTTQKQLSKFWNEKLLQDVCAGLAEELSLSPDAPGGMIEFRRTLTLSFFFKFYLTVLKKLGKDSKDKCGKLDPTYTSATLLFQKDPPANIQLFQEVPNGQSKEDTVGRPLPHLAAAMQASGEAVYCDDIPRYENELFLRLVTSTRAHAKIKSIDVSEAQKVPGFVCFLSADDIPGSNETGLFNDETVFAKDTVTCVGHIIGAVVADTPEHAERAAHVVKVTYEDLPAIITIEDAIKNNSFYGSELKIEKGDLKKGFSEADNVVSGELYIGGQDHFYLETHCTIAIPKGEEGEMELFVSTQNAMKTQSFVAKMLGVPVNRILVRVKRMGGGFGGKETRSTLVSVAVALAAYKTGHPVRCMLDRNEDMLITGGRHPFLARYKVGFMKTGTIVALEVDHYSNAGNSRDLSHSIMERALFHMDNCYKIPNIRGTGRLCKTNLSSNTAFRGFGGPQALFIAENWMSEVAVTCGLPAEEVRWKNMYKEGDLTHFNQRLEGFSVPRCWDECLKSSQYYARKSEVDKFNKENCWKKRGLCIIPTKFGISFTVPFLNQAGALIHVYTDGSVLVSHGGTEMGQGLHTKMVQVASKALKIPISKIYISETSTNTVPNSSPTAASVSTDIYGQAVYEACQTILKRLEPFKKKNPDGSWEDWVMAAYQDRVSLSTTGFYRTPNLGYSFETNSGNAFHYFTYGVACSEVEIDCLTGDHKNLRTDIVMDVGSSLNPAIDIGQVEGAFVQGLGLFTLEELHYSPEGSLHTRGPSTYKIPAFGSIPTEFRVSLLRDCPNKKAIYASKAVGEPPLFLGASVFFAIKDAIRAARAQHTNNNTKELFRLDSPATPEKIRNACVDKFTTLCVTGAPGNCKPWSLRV

Usually IC50 stands for the concentration at which inhibition is half-maximal. High values mean weaker potency in that assay, low ones greater potency in that assay. On to `CC(C)COc1ccc(-c2nc3ncnc(Cl)c3[nH]2)cc1[N+](=O)[O-]` [Example 1-A, 8-(4-Isobutoxy-3-nitrophenyl)-6-chloropurine], for which, in assay [1], the IC50 came to 63.2 nM.
`CC(C)COc1ccc(-c2nc3c(N)ncnc3o2)cc1[N+](=O)[O-]` [Example 1-B, 6-amino-8-(4-isobutoxy-3-nitrophenyl)oxazolo[4,5-d]pyrimidine]: 44.8 nM corresponded to half-maximal inhibition in assay [1] (IC50). The “Inhibition ratio (plasma uric acid value vs vehicle control group)” value (shortened to “Inhibition ratio”) on xanthine oxidase was 60.7%.
In turn, `CC(C)COc1ccc(-c2nc3ncnc(O)c3[nH]2)cc1[N+](=O)[O-]` [Example 2, 8-(4-Isobutoxy-3-nitrophenyl)-6-hydroxypurine] yielded an IC50 in assay [1] of 11.1 nM.
As for `CC(C)COc1ccc(-c2nc3ncnc(N)c3[nH]2)cc1[N+](=O)[O-]` [Example 6, 6-Amino-8-(4-isobutoxy-3-nitrophenyl)purine], the IC50 in assay [1] turned out to be 75.9 nM. In addition, the “Inhibition ratio” value at xanthine oxidase is 63.8%.
In assay [1], `CC(C)COc1ccc(-c2nc3c(O)cccc3[nH]2)cc1[N+](=O)[O-]` [Example 7, 4-Hydroxy-2-(4-isobutoxy-3-nitrophenyl)-1H-benzimidazole] gave an IC50 of 102 nM.
Regarding `CC(C)COc1ccc(-c2nc3cccc(C(=O)O)c3o2)cc1[N+](=O)[O-]` [Example 8, 2-(4-Isobutoxy-3-nitrophenyl)benzoxazole-7carboxylic acid], it took 18.6 nM to reach half-maximal inhibition in assay [1] (IC50). Besides, the “Inhibition ratio” value on xanthine oxidase is given as 56.8%.
Consider `CC(C)COc1ccc(-c2nc3ccncc3[nH]2)cc1[N+](=O)[O-]` [Example 9, 2-(4-Isobutoxy-3-nitrophenyl)-3H-imidazo[4,5-c]pyridine], for which, in assay [1], half-maximal inhibition (IC50) was put at 58.4 nM.
`CC(C)COc1ccc(-c2nc3cccc(C(=O)O)c3s2)cc1C#N` [Example 10, 2-(3-Cyano-4-isobutyloxyphenyl)-1,3-benzothiazole-7-carboxylic acid] displayed a half-inhibitory concentration (IC50) in assay [1] of 50 nM. Further, on xanthine oxidase, the “Inhibition ratio” value was 56.1%.
In the same order, the values of `CC(C)COc1ccc(-c2nc3c(C(=O)O)cccc3[nH]2)cc1C#N` [Example 11, 2-(3-Cyano-4-isobutyloxyphenyl)benzimidazole-7-carboxylic acid] are 22.3 nM and 51.4%.
Consider `CC(C)COc1ccc(-c2nc3cccc(O)c3s2)cc1C#N` [Example 12, 2-(3-Cyano-4-isobutyloxyphenyl)-7-hydroxy 1,3-benzothiazole], for which, in assay [1], 161 nM corresponded to half-maximal inhibition (IC50).
